Measurements taken from ChEMBL document CHEMBL1649257, “Rapid detection of a point mutation in the parC gene associated with decreased susceptibility to fluoroquinolones in Mycoplasma bovis” (2009).
≈ marks a conversion by molar mass, not a printed value.

Columns and labels:
Type in all cases: functional
Mycoplasmopsis bovis [1] = assay: Antimicrobial activity against Mycoplasma bovis isolate 7910 harboring GyrA 83Ser and ParC 84Asp mutant by broth microdilution method
Mycoplasmopsis bovis [2] = assay: Antimicrobial activity against Mycoplasma bovis isolate 4243 harboring GyrA 83Phe and ParC 84Asn mutant by broth microdilution method
Mycoplasmopsis bovis [3] = assay: Antimicrobial activity against Mycoplasma bovis isolate 2458 harboring GyrA 83Phe and ParC 84Asp mutant by broth microdilution method
Mycoplasmopsis bovis [4] = assay: Antimicrobial activity against Mycoplasma bovis isolate 3179 harboring GyrA 83Phe and ParC 84Asp mutant by broth microdilution method
Mycoplasmopsis bovis [5] = assay: Antimicrobial activity against Mycoplasma bovis isolate 2643 harboring GyrA 83Phe and ParC 84Asp mutant by broth microdilution method
Mycoplasmopsis bovis [6] = assay: Antimicrobial activity against Mycoplasma bovis isolate 476-2 harboring GyrA 83Ser and ParC 84Asp mutant by broth microdilution method
Mycoplasmopsis bovis [7] = assay: Antimicrobial activity against Mycoplasma bovis isolate 523 harboring GyrA 83Phe and ParC 84Asn mutant by broth microdilution method
Mycoplasmopsis bovis [8] = assay: Antimicrobial activity against Mycoplasma bovis isolate 1306 harboring GyrA 83Phe and ParC 84Asp mutant by broth microdilution method
Mycoplasmopsis bovis [9] = assay: Antimicrobial activity against Mycoplasma bovis isolate 4241 harboring GyrA 83Phe and ParC 84Asn mutant by broth microdilution method
Mycoplasmopsis bovis [10] = assay: Antimicrobial activity against Mycoplasma bovis isolate K harboring GyrA 83Ser and ParC 84Asp mutant by broth microdilution method
Mycoplasmopsis bovis [11] = assay: Antimicrobial activity against Mycoplasma bovis isolate 2029 harboring GyrA 83Phe and ParC 84Asp mutant by broth microdilution method
Mycoplasmopsis bovis [12] = assay: Antimicrobial activity against Mycoplasma bovis isolate PG45 harboring GyrA 83Ser and ParC 84Asp mutant by broth microdilution method
Mycoplasmopsis bovis [13] = assay: Antimicrobial activity against Mycoplasma bovis isolate 1665 harboring GyrA 83Phe and ParC 84Asn mutant by broth microdilution method
Mycoplasmopsis bovis [14] = assay: Antimicrobial activity against Mycoplasma bovis isolate 6226 harboring GyrA 83Ser and ParC 84Asp mutant by broth microdilution method
Mycoplasmopsis bovis [15] = assay: Antimicrobial activity against Mycoplasma bovis isolate 6099 harboring GyrA 83Ser and ParC 84Asp mutant by broth microdilution method
Mycoplasmopsis bovis [16] = assay: Antimicrobial activity against Mycoplasma bovis isolate 3222 harboring GyrA 83Ser and ParC 84Asp mutant by broth microdilution method
Mycoplasmopsis bovis [17] = assay: Antimicrobial activity against Mycoplasma bovis isolate 4554 harboring GyrA 83Ser and ParC 84Asp mutant by broth microdilution method
Mycoplasmopsis bovis [18] = assay: Antimicrobial activity against Mycoplasma bovis isolate 2D harboring GyrA 83Ser and ParC 84Asp mutant by broth microdilution method
Mycoplasmopsis bovis [19] = assay: Antimicrobial activity against Mycoplasma bovis isolate 962 harboring GyrA 83Phe and ParC 84Asn mutant by broth microdilution method
Mycoplasmopsis bovis [20] = assay: Antimicrobial activity against Mycoplasma bovis isolate 1416 harboring GyrA 83Phe and ParC 84Asp mutant by broth microdilution method
Mycoplasmopsis bovis [21] = assay: Antimicrobial activity against Mycoplasma bovis isolate 8830 harboring GyrA 83Phe and ParC 84Asn mutant by broth microdilution method
Mycoplasmopsis bovis [22] = assay: Antimicrobial activity against Mycoplasma bovis isolate H harboring GyrA 83Ser and ParC 84Asp mutant by broth microdilution method
Mycoplasmopsis bovis [23] = assay: Antimicrobial activity against Mycoplasma bovis isolate 5180 harboring GyrA 83Ser and ParC 84Asp mutant by broth microdilution method
Mycoplasmopsis bovis [24] = assay: Antimicrobial activity against Mycoplasma bovis isolate 170 harboring GyrA 83Ser and ParC 84Asp mutant by broth microdilution method
Mycoplasmopsis bovis [25] = assay: Antimicrobial activity against Mycoplasma bovis isolate 8998 harboring GyrA 83Ser and ParC 84Asp mutant by broth microdilution method
Mycoplasmopsis bovis [26] = assay: Antimicrobial activity against Mycoplasma bovis isolate 9603 harboring GyrA 83Ser and ParC 84Asp mutant by broth microdilution method
Mycoplasmopsis bovis [27] = assay: Antimicrobial activity against Mycoplasma bovis isolate 111-2 harboring GyrA 83Ser and ParC 84Asp mutant by broth microdilution method
Mycoplasmopsis bovis [28] = assay: Antimicrobial activity against Mycoplasma bovis isolate 330 harboring GyrA 83Ser and ParC 84Asp mutant by broth microdilution method
Mycoplasmopsis bovis [29] = assay: Antimicrobial activity against Mycoplasma bovis isolate 861 harboring GyrA 83Ser and ParC 84Asp mutant by broth microdilution method
Mycoplasmopsis bovis [30] = assay: Antimicrobial activity against Mycoplasma bovis isolate 2E harboring GyrA 83Ser and ParC 84Asp mutant by broth microdilution method
Mycoplasmopsis bovis [31] = assay: Antimicrobial activity against Mycoplasma bovis isolate 3374 harboring GyrA 83Phe and ParC 84Asp mutant by broth microdilution method
Mycoplasmopsis bovis [32] = assay: Antimicrobial activity against Mycoplasma bovis isolate 3181 harboring GyrA 83Phe and ParC 84Asn mutant by broth microdilution method
Mycoplasmopsis bovis [33] = assay: Antimicrobial activity against Mycoplasma bovis isolate 5848 harboring GyrA 83Phe and ParC 84Asp mutant by broth microdilution method
Mycoplasmopsis bovis [34] = assay: Antimicrobial activity against Mycoplasma bovis isolate 9249 harboring GyrA 83Ser and ParC 84Asp mutant by broth microdilution method
Mycoplasmopsis bovis [35] = assay: Antimicrobial activity against Mycoplasma bovis isolate 4879 harboring GyrA 83Phe and ParC 84Asn mutant by broth microdilution method
Mycoplasmopsis bovis [36] = assay: Antimicrobial activity against Mycoplasma bovis isolate 7043 harboring GyrA 83Phe and ParC 84Asp mutant by broth microdilution method
Mycoplasmopsis bovis [37] = assay: Antimicrobial activity against Mycoplasma bovis isolate 77 harboring GyrA 83Phe and ParC 84Asp mutant by broth microdilution method
Mycoplasmopsis bovis [38] = assay: Antimicrobial activity against Mycoplasma bovis isolate 9771 harboring GyrA 83Phe and ParC 84Asn mutant by broth microdilution method
Mycoplasmopsis bovis [39] = assay: Antimicrobial activity against Mycoplasma bovis isolate 4925 harboring GyrA 83Ser and ParC 84Asn mutant by broth microdilution method
Mycoplasmopsis bovis [40] = assay: Antimicrobial activity against Mycoplasma bovis isolate 8934 harboring GyrA 83Ser and ParC 84Asp mutant by broth microdilution method
Mycoplasmopsis bovis [41] = assay: Antimicrobial activity against Mycoplasma bovis isolate 3036 harboring GyrA 83Phe and ParC 84Asp mutant by broth microdilution method
Mycoplasmopsis bovis [42] = assay: Antimicrobial activity against Mycoplasma bovis isolate 2670 harboring GyrA 83Ser and ParC 84Asp mutant by broth microdilution method
Mycoplasmopsis bovis [43] = assay: Antimicrobial activity against Mycoplasma bovis isolate 1972 harboring GyrA 83Phe and ParC 84Asn mutant by broth microdilution method

Work on `CCN1CCN(c2cc3c(cc2F)c(=O)c(C(=O)O)cn3C2CC2)CC1` [ENROFLOXACIN] yielded an MIC (Mycoplasmopsis bovis [1]) of 0.32 µg/mL (≈ 0.89 µM), an MIC (Mycoplasmopsis bovis [2]) of 2.5 µg/mL (≈ 6.96 µM) and an MIC (Mycoplasmopsis bovis [3]) of 1.25 µg/mL (≈ 3.48 µM). It also gave an MIC (Mycoplasmopsis bovis [4]) of 0.63 µg/mL (≈ 1.75 µM), an MIC (Mycoplasmopsis bovis [5]) of 1.25 µg/mL (≈ 3.48 µM) and an MIC (Mycoplasmopsis bovis [6]) of 0.16 µg/mL (≈ 0.445 µM). The MIC (Mycoplasmopsis bovis [7]) was 2.5 µg/mL (≈ 6.96 µM), the MIC (Mycoplasmopsis bovis [8]) was 1.25 µg/mL (≈ 3.48 µM) and the MIC (Mycoplasmopsis bovis [9]) was 2.5 µg/mL (≈ 6.96 µM). The MIC (Mycoplasmopsis bovis [10]) was 0.16 µg/mL (≈ 0.445 µM), the MIC (Mycoplasmopsis bovis [11]) was 0.32 µg/mL (≈ 0.89 µM) and the MIC (Mycoplasmopsis bovis [12]) was 0.16 µg/mL (≈ 0.445 µM). The MIC (Mycoplasmopsis bovis [13]) was 2.5 µg/mL (≈ 6.96 µM), the MIC (Mycoplasmopsis bovis [14]) was 0.32 µg/mL (≈ 0.89 µM) and the MIC (Mycoplasmopsis bovis [15]) was 0.16 µg/mL (≈ 0.445 µM). It also gave an MIC (Mycoplasmopsis bovis [16]) of 0.16 µg/mL (≈ 0.445 µM), an MIC (Mycoplasmopsis bovis [17]) of 0.16 µg/mL (≈ 0.445 µM) and an MIC (Mycoplasmopsis bovis [18]) of 0.16 µg/mL (≈ 0.445 µM). The MIC (Mycoplasmopsis bovis [19]) was 5 µg/mL (≈ 13.9 µM), the MIC (Mycoplasmopsis bovis [20]) was 0.32 µg/mL (≈ 0.89 µM) and the MIC (Mycoplasmopsis bovis [21]) was 5 µg/mL (≈ 13.9 µM). For the same molecule, the MIC (Mycoplasmopsis bovis [22]) was 0.16 µg/mL (≈ 0.445 µM), the MIC (Mycoplasmopsis bovis [23]) was 0.16 µg/mL (≈ 0.445 µM) and the MIC (Mycoplasmopsis bovis [24]) was 0.63 µg/mL (≈ 1.75 µM). It also gave an MIC (Mycoplasmopsis bovis [25]) of 0.08 µg/mL (≈ 0.223 µM), an MIC (Mycoplasmopsis bovis [26]) of 0.16 µg/mL (≈ 0.445 µM) and an MIC (Mycoplasmopsis bovis [27]) of 0.16 µg/mL (≈ 0.445 µM). It also gave an MIC (Mycoplasmopsis bovis [28]) of 0.08 µg/mL (≈ 0.223 µM), an MIC (Mycoplasmopsis bovis [29]) of 0.08 µg/mL (≈ 0.223 µM) and an MIC (Mycoplasmopsis bovis [30]) of 0.16 µg/mL (≈ 0.445 µM). It also gave an MIC (Mycoplasmopsis bovis [31]) of 1.25 µg/mL (≈ 3.48 µM), an MIC (Mycoplasmopsis bovis [32]) of 2.5 µg/mL (≈ 6.96 µM) and an MIC (Mycoplasmopsis bovis [33]) of 1.25 µg/mL (≈ 3.48 µM). It also gave an MIC (Mycoplasmopsis bovis [34]) of 0.16 µg/mL (≈ 0.445 µM), an MIC (Mycoplasmopsis bovis [35]) of 5 µg/mL (≈ 13.9 µM) and an MIC (Mycoplasmopsis bovis [36]) of 0.32 µg/mL (≈ 0.89 µM). For the same molecule, the MIC (Mycoplasmopsis bovis [37]) was 0.63 µg/mL (≈ 1.75 µM), the MIC (Mycoplasmopsis bovis [38]) was 5 µg/mL (≈ 13.9 µM) and the MIC (Mycoplasmopsis bovis [39]) was 2.5 µg/mL (≈ 6.96 µM). It also gave an MIC (Mycoplasmopsis bovis [40]) of 0.32 µg/mL (≈ 0.89 µM), an MIC (Mycoplasmopsis bovis [41]) of 1.25 µg/mL (≈ 3.48 µM) and an MIC (Mycoplasmopsis bovis [42]) of 0.08 µg/mL (≈ 0.223 µM). For the same molecule, the MIC (Mycoplasmopsis bovis [43]) was 2.5 µg/mL (≈ 6.96 µM).
